Experimental data as given in US20230312587A1, “PTERIDINONE COMPOUNDS AND USES THEREOF” (Vertex Pharmaceutical Incorporated, priority 2018, published 2023).
Where two headings read alike, the source gives them in different places.

Test system: β-catenin-TCF-mediated reporter transcription activity in Colo 205 cells
Test: Colo 205 reporter assay (TCF/LEF luciferase)
Type: cell-based
Method in brief: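 Luciferase signal from a TCF/LEF-driven reporter, stably integrated in Colo 205 colon cancer cells, was measured 5 h after compound addition.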

[1] = Homo sapiens, COLO 205, 5 h, Colo 205 TCF/LEF luciferase reporter, five hours after addition of compound, read-out: TCF reporter Colo205 IC50
[2] = Homo sapiens, COLO 205, 5 h, R-isomer at C2 (corresponding to C2 S-isomer), Colo 205 TCF/LEF luciferase reporter, 5 h, read-out: TCF reporter Colo205 IC50
[3] = Colo 205 TCF/LEF luciferase reporter, five hours after addition of compound, read-out: TCF reporter Colo205 IC50

Compound | IC50 [1] | other results
Cc1nc(N[C@H]2C[C@@H](COc3cncc(C(F)(F)F)c3)C2)nc2c1NC(=O)[C@H](C)N2C [Compound 363, (7S)-4,7,8-trimethyl-2-((cis-3-(((5-(trifluoromethyl)pyridin-3-yl)oxy)methyl)cyclobutyl)amino)-7,8-dihydropteridin-6(5H)-one] | < 300 nM | –
Cc1nc(NC2CN(C(=O)c3cnc(Cl)s3)C2)nc2c1NC(=O)[C@H](C(C)C)N2C [Compound 633, (S)-2-((1-(2-chlorothiazole-5-carbonyl)azetidin-3-yl)amino)-7-isopropyl-4,8-dimethyl-7,8-dihydropteridin-6(5H)-one] | 1000 to 5000 nM | –
CCN1C(=O)[C@@H](C)N(CC)c2nc(NCc3cnn(Cc4ccc(F)cc4)c3)ncc21 [Compound I-985] | – | IC50 [2]: < 300 nM
Cc1nc(NC2CN(C(=O)C3CCC(F)(F)CC3)C2)nc2c1NC(=O)[C@H](C(C)C)N2C [Compound 543, (S)-2-((1-(4,4-difluorocyclohexane-1-carbonyl)azetidin-3-yl)amino)-7-isopropyl-4,8-dimethyl-7,8-dihydropteridin-6(5H)-one] | 1000 to 5000 nM | –
Cc1nc(NCc2cnn(Cc3cnc(C(F)(F)F)c(F)c3)c2)nc2c1NC(=O)[C@H](C)N2C [Compound 209, (7S)-2-(((1-((5-fluoro-6-(trifluoromethyl)pyridin-3-yl)methyl)-1H-pyrazol-4-yl)methyl)amino)-4,7,8-trimethyl-7,8-dihydropteridin-6(5H)-one] | < 300 nM | –
Cc1nc(N[C@H]2C[C@H](n3ccc(C(F)(F)F)n3)C2)nc2c1NC(=O)[C@H](C(C)C)N2C [Compound 730, (S)-7-isopropyl-4,8-dimethyl-2-((trans-3-(3-(trifluoromethyl)-1H-pyrazol-1-yl)cyclobutyl)amino)-7,8-dihydropteridin-6(5H)-one] | 1000 to 5000 nM | –
Cc1nc(N(Cc2cnn(Cc3ccc(C(F)(F)F)nc3)c2)C(=O)OC(C)OC(=O)C(C)C)nc2c1NC(=O)[C@H](C)N2C (stereo partly drawn) [Compound 408, 1-((((1-((6-(trifluoromethyl)pyridin-3-yl)methyl)-1H-pyrazol-4-yl)methyl)((7S)-4,7,8-trimethyl-6-oxo-5,6,7,8-tetrahydropteridin-2-yl)carbamoyl)oxy)ethyl isobutyrate] | – | IC50 (Homo sapiens, COLO 205, 5 h, Colo 205 cells with stably transfected TCF/LEF luciferase reporter, five hours after addition of compound, read-out: TCF reporter Colo205): < 300 nM
Cc1nc(N[C@H]2C[C@H](NC(=O)Oc3cc(F)c(F)c(F)c3)C2)nc2c1NC(=O)[C@H](C)N2C [Compound 483, 3,4,5-trifluorophenyl (trans-3-(((S)-4,7,8-trimethyl-6-oxo-5,6,7,8-tetrahydropteridin-2-yl)amino)cyclobutyl)carbamate] | – | IC50 (Homo sapiens, 5 h, Colo 205 TCF/LEF luciferase reporter, five hours after addition of compound, read-out: TCF reporter Colo205 IC50): 1000 to 5000 nM
Cc1nc(N[C@H]2C[C@H](NC(=O)NC3CCC(F)(F)CC3)C2)nc2c1NC(=O)[C@H](C(C)C)N2C [Compound 524, 1-(4,4-difluorocyclohexyl)-3-(trans-3-(((S)-7-isopropyl-4,8-dimethyl-6-oxo-5,6,7,8-tetrahydropteridin-2-yl)amino)cyclobutyl)urea] | ≥ 5000 nM | –
Cc1nc(NC2CN(C(=O)[C@H](C)c3ccccc3)C2)nc2c1NC(=O)[C@H](C(C)C)N2C [Compound 627, (S)-7-isopropyl-4,8-dimethyl-2-((1-((R)-2-phenylpropanoyl)azetidin-3-yl)amino)-7,8-dihydropteridin-6(5H)-one] | 1000 to 5000 nM | –
Cc1nc(NCc2cc(C)n(-c3ccc(C(F)(F)F)cc3)c2C)nc2c1NC(=O)[C@H](C(C)C)N2C [Compound 453, (S)-2-(((2,5-dimethyl-1-(4-(trifluoromethyl)phenyl)-1H-pyrrol-3-yl)methyl)amino)-7-isopropyl-4,8-dimethyl-7,8-dihydropteridin-6(5H)-one] | < 300 nM | –
C[C@H]1C(=O)N(C)c2cnc(NCc3cnn(Cc4ccc(F)cc4)c3)nc2N1C [Compound 27, (7S)-2-(((1-(4-fluorobenzyl)-1H-pyrazol-4-yl)methyl)amino)-5,7,8-trimethyl-7,8-dihydropteridin-6(5H)-one] | 300 to 1000 nM | –
Cc1nc(N[C@H]2C[C@H](NC(=O)Nc3ccc(F)cc3)C2)nc2c1NC(=O)[C@H](C)N2C [Compound 459, 1-(4-fluorophenyl)-3-(trans-3-(((S)-4,7,8-trimethyl-6-oxo-5,6,7,8-tetrahydropteridin-2-yl)amino)cyclobutyl)urea] | ≥ 5000 nM | –
Cc1nc(NCc2cnn(Cc3c(F)cc(F)cc3F)c2)nc2c1N(C)C(=O)[C@H](C)N2C [Compound 18, (7S)-4,5,7,8-tetramethyl-2-(((1-(2,4,6-trifluorobenzyl)-1H-pyrazol-4-yl)methyl)amino)-7,8-dihydropteridin-6(5H)-one] | < 300 nM | –
Cc1nc(N[C@H]2C[C@H](Oc3cncc(F)c3)C2)nc2c1NC(=O)[C@H](C)N2C [Compound 262, (7S)-2-((trans-3-((5-fluoropyridin-3-yl)oxy)cyclobutyl)amino)-4,7,8-trimethyl-7,8-dihydropteridin-6(5H)-one] | 1000 to 5000 nM | –
COC1(C2C(=O)Nc3c(C)nc(NCc4cnn(Cc5ccc(C(F)(F)F)nc5)c4)nc3N2C)CC1 (stereo not drawn) [Compound 665, 7-(1-methoxycyclopropyl)-4,8-dimethyl-2-(((1-((6-(trifluoromethyl)pyridin-3-yl)methyl)-1H-pyrazol-4-yl)methyl)amino)-7,8-dihydropteridin-6(5H)-one] | 300 to 1000 nM | –
CC(C)c1ccccc1Cn1cc(CNc2ncc3c(n2)N(C)[C@@H](C)C(=O)N3)cn1 [Compound 79, (7S)-2-(((1-(2-isopropylbenzyl)-1H-pyrazol-4-yl)methyl)amino)-7,8-dimethyl-7,8-dihydropteridin-6(5H)-one] | < 300 nM | –
CO[C@@H](C(=O)N1CC(Nc2nc(C)c3c(n2)N(C)[C@@H](C(C)C)C(=O)N3)C1)c1ccccc1 [Compound 634, (S)-7-isopropyl-2-((1-((R)-2-methoxy-2-phenylacetyl)azetidin-3-yl)amino)-4,8-dimethyl-7,8-dihydropteridin-6(5H)-one] | ≥ 5000 nM | –
Cc1nc(NCc2cnn(Cc3ccc(C(F)(F)F)cn3)c2)nc2c1NC(=O)[C@H](C)N2C [Compound 200, (7S)-4,7,8-trimethyl-2-(((1-((5-(trifluoromethyl)pyridin-2-yl)methyl)-1H-pyrazol-4-yl)methyl)amino)-7,8-dihydropteridin-6(5H)-one] | 300 to 1000 nM | –
CCN1C(=O)[C@](C)(CC)N(CC)c2nc(NCc3cnn(Cc4cc(F)c(F)c(F)c4)c3)ncc21 [Compound 35, (7S)-5,7,8-triethyl-7-methyl-2-(((1-(3,4,5-trifluorobenzyl)-1H-pyrazol-4-yl)methyl)amino)-7,8-dihydropteridin-6(5H)-one] | < 300 nM | –
CO[C@H](C)[C@H]1C(=O)Nc2c(C)nc(NCc3cnn(CC4CC(F)(F)C4)c3)nc2N1C [Compound 728, (S)-2-(((1-((3,3-difluorocyclobutyl)methyl)-1H-pyrazol-4-yl)methyl)amino)-7-((R)-1-methoxyethyl)-4,8-dimethyl-7,8-dihydropteridin-6(5H)-one] | < 300 nM | –
Cc1nc(N[C@H]2C[C@@H](COc3ccc(F)c(F)c3)C2)nc2c1NC(=O)[C@H](C)N2C [Compound 271, (7S)-2-((cis-3-((3,4-difluorophenoxy)methyl)cyclobutyl)amino)-4,7,8-trimethyl-7,8-dihydropteridin-6(5H)-one] | < 300 nM | –
CC[C@H]1C(=O)N(C)c2cnc(NCc3cnn(Cc4ccc(F)cc4)c3)nc2N1C(C)C [Compound 52, (7S)-7-ethyl-2-(((1-(4-fluorobenzyl)-1H-pyrazol-4-yl)methyl)amino)-8-isopropyl-5-methyl-7,8-dihydropteridin-6(5H)-one] | – | IC50 [3]: 300 to 1000 nM
CO[C@H](C)[C@H]1C(=O)Nc2c(C)nc(N[C@H]3C[C@@H](Cc4nc(C(F)(F)F)no4)C3)nc2N1C [Compound 664, (S)-7-((R)-1-methoxyethyl)-4,8-dimethyl-2-(((1s,3R)-3-((3-(trifluoromethyl)-1,2,4-oxadiazol-5-yl)methyl)cyclobutyl)amino)-7,8-dihydropteridin-6(5H)-one] | – | IC50 [3]: 300 to 1000 nM
CCn1nc(C(F)(F)F)cc1Cn1cc(CNc2nc(C)c3c(n2)N(C)[C@@H](C)C(=O)N3)cn1 [Compound 189, (7S)-2-(((1-((1-ethyl-3-(trifluoromethyl)-1H-pyrazol-5-yl)methyl)-1H-pyrazol-4-yl)methyl)amino)-4,7,8-trimethyl-7,8-dihydropteridin-6(5H)-one] | < 300 nM | –
Cc1nc(N[C@H]2C[C@@H](Cn3nccc3C(F)(F)F)C2)nc2c1NC(=O)[C@H](CO)N2C [Compound 743, (S)-7-(hydroxymethyl)-4,8-dimethyl-2-(((1s,3R)-3-((5-(trifluoromethyl)-1H-pyrazol-1-yl)methyl)cyclobutyl)amino)-7,8-dihydropteridin-6(5H)-one] | – | IC50 [3]: 1000 to 5000 nM
Cc1nc(N[C@H]2CC[C@@H](Oc3cc(F)c(F)c(F)c3)C2)nc2c1NC(=O)[C@H](C)N2C (mixture of isomers) [Compound 259, (7S)-4,7,8-trimethyl-2-((cis-3-(3,4,5-trifluorophenoxy)cyclopentyl)amino)-7,8-dihydropteridin-6(5H)-one] | ≥ 5000 nM | –
Cc1nc(N[C@H]2C[C@@H](Cn3cc(F)cn3)C2)nc2c1NC(=O)[C@H](C)N2C [Compound 279, (7S)-2-((cis-3-((4-fluoro-1H-pyrazol-1-yl)methyl)cyclobutyl)amino)-4,7,8-trimethyl-7,8-dihydropteridin-6(5H)-one] | 300 to 1000 nM | –
COc1c(F)cc(Cn2cc(CNc3nc(C)c4c(n3)N(C)[C@H](C)C(=O)N4)cn2)cc1F [Compound I-1205] | – | IC50 [2]: < 300 nM
CN1C(=O)C(C)(C)N(C)c2nc(NCc3cnn(Cc4cnccc4C(F)(F)F)c3)ncc21 [Compound 236, 5,7,7,8-Tetramethyl-2-(((1-((4-(trifluoromethyl)pyridin-3-yl)methyl)-1H-pyrazol-4-yl)methyl)amino)-7,8-dihydropteridin-6(5H)-one] | < 300 nM | –
